Measurements: ChEMBL document CHEMBL5385850, “Identification of novel aza-analogs of TN-16 as disrupters of microtubule dynamics through a multicomponent reaction” (Eur J Med Chem, 2023)
The source made the active and inactive calls. The rule behind the calls is not given here.

What was measured:
SH-SY5Y [1] = test: Cytotoxicity against human SH-SY5Y cells incubated for 48 hrs by MTT assay; format: functional, cell-based
SH-SY5Y [2] = test: Upregulation of tubulin acetylation in human SH-SY5Y cells at 1 uM measured after 16 hrs by Western blot analysis; format: functional, cell-based
SH-SY5Y [3] = test: Cytotoxicity against human SH-SY5Y cells at 1 uM incubated for 72 hrs by MTT assay relative to control; format: functional
SH-SY5Y [4] = test: Induction of cell cycle arrest in human SH-SY5Y cells assessed as accumulation of cells at G2/M phase at 1 uM measured after 16 hrs by PI staining based flow cytometry analysis; format: functional
Tubulin (Homo sapiens) [5] = biological target: T1, Tubulin (Homo sapiens) (UniProt P68371+Q9H4B7+P0DPH7+P68366+Q13509+Q71U36+P04350+Q3ZCM7+P07437+P68363+Q9BQE3+Q6PEY2+Q13885+Q9BVA1+Q9BUF5); test: Inhibition of tubulin polymerization (unknown origin) measured every 60 secs for 1 hr by fluorescence based analysis; format: protein-complex assay; settings: dose 1-10 µM
MDA-MB-231 = test: Cytotoxicity against human MDA-MB-231 cells incubated for 48 hrs by MTT assay; format: functional, cell-based
MCF7 = test: Cytotoxicity against human MCF7 cells incubated for 48 hrs by MTT assay; format: functional, cell-based
Tubulin (Homo sapiens) [6] = biological target: T1, Tubulin (Homo sapiens); test: Inhibition of tubulin polymerization in human SH-SY5Y cells assessed as decrease in depolymerized tubulin to polymerized tubulin ratio at 1 uM measured after 16 hrs by Western blot analysis; format: cell-based
Tubulin (Homo sapiens) [7] = biological target: T1, Tubulin (Homo sapiens); test: Inhibition of tubulin polymerization in human SH-SY5Y cells assessed as disappearance of tubulin network structure at 3 times EC50 measured after 16 hrs by immunofluorescence assay; format: cell-based
SH-SY5Y [8] = test: Upregulation of tubulin acetylation in human SH-SY5Y cells at 70 to 350 nM measured after 16 hrs by Western blot analysis; format: functional, cell-based; settings: dose 70-350 nM
HeLa = test: Cytotoxicity against human HeLa cells incubated for 48 hrs by MTT assay; format: functional, cell-based
SH-SY5Y [9] = test: Upregulation of tubulin acetylation in human SH-SY5Y cells at 200 nM by immunofluorescence assay; format: functional, cell-based
SH-SY5Y [10] = test: Upregulation of tubulin acetylation in human SH-SY5Y cells at 100 to 1000 nM measured after 16 hrs by Western blot analysis; format: functional, cell-based; settings: dose 100-1000 nM
Tubulin (Homo sapiens) [11] = biological target: T1, Tubulin (Homo sapiens); test: Inhibition of tubulin polymerization (unknown origin) at 1 to 30 uM measured every 60 secs for 1 hr by fluorescence based analysis; format: protein-complex assay; settings: dose 1-30 µM, time 60.0 sec
SH-SY5Y [12] = test: Upregulation of tubulin acetylation in human SH-SY5Y cells at 300 nM by immunofluorescence assay; format: functional, cell-based
Tubulin (Homo sapiens) [13] = biological target: T1, Tubulin (Homo sapiens); test: Inhibition of tubulin polymerization in human SH-SY5Y cells assessed as decrease in depolymerized tubulin to polymerized tubulin ratio at 100 nM measured after 16 hrs by Western blot analysis; format: cell-based

C#CCCOc1cccc(N/C(C)=C2\C(=O)NN(Cc3ccccc3)C2=O)c1
EC50 (SH-SY5Y [1]): 790 nM
Activity (SH-SY5Y [2]): Active

C/C(Nc1ccccc1)=C1/C(=O)N[C@@H](Cc2ccccc2)C1=O
Activity (SH-SY5Y [3]): 34.7%
EC50 (SH-SY5Y [1]): 68 nM
Activity (SH-SY5Y [4]): Active
inhibition (Tubulin (Homo sapiens) [5]): Dose-Dependent Effect
Activity (MDA-MB-231): inactive
Activity (SH-SY5Y [2]): inactive
Activity (MCF7): inactive
inhibition (Tubulin (Homo sapiens) [6]): inactive
inhibition (Tubulin (Homo sapiens) [7]): inactive
Activity (SH-SY5Y [8]): Active
Activity (HeLa): Active
Activity (SH-SY5Y [9]): Active

C/C(Nc1ccccc1)=C1/C(=O)NN(Cc2ccccc2)C1=O
Activity (SH-SY5Y [3]): 36.2%

O=C1N[C@@H](Cc2ccccc2)C(=O)/C1=C/Nc1ccccc1
Activity (SH-SY5Y [3]): 70.3%

COc1ccc(/C=C\c2cc(OC)c(OC)c(OC)c2)cc1O
Activity (MDA-MB-231): inactive
Activity (MCF7): inactive

C/C(Nc1cccc(Oc2ccccc2)c1)=C1/C(=O)NN(Cc2ccccc2)C1=O
EC50 (SH-SY5Y [1]): 895 nM
Activity (SH-SY5Y [4]): Active
Activity (SH-SY5Y [2]): Active

C#CCOc1cccc(N/C(C)=C2\C(=O)NN(Cc3ccccc3)C2=O)c1
EC50 (SH-SY5Y [1]): 102 nM
Activity (SH-SY5Y [4]): Active
Activity (SH-SY5Y [10]): Active
inhibition (Tubulin (Homo sapiens) [6]): inactive
inhibition (Tubulin (Homo sapiens) [7]): inactive
inhibition (Tubulin (Homo sapiens) [11]): Active
Activity (SH-SY5Y [12]): Active

CC(=O)O[C@H]1C(=O)[C@@]2(C)[C@H]([C@H](OC(=O)c3ccccc3)[C@]3(O)C[C@H](OC(=O)[C@H](O)[C@@H](NC(=O)c4ccccc4)c4ccccc4)C(C)=C1C3(C)C)[C@]1(OC(C)=O)CO[C@@H]1C[C@@H]2O
inhibition (Tubulin (Homo sapiens) [13]): Active

CN(/C=C1\C(=O)N[C@@H](Cc2ccccc2)C1=O)c1ccccc1
Activity (SH-SY5Y [3]): 112.4%

C/C(Cc1ccccc1)=C1/C(=O)N[C@@H](Cc2ccccc2)C1=O
Activity (SH-SY5Y [3]): 100.7%
